# Experiments:
# ERR2 = target: T1, ERR2 (Homo sapiens, UniProt O95718); details: Coward et al. (2001); cited from earlier work
# T1 sequence (O95718 1-433): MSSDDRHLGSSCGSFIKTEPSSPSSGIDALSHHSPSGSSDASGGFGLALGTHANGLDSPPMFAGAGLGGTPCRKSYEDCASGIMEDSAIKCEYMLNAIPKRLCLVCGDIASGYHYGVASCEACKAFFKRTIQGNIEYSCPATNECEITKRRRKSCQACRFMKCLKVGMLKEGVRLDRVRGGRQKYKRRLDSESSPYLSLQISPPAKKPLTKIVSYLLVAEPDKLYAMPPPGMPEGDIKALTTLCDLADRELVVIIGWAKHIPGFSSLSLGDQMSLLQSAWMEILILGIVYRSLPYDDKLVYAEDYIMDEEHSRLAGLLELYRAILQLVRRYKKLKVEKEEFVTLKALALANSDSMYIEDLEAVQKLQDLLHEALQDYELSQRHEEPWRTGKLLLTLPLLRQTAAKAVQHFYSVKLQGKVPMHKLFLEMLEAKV
# full length ERR3 = full length ERR3 (Homo sapiens, UniProt P62508); test: Transient transfection assay, full length ERR3 with ERE(2×)-TK-LUC reporter; format: cell-based; details: in the presence of 4-OHT
# Experimental: COS-1 and BHK cells were cultured in DMEM supplemented with 5% FCS, penicillin, streptomycin, and glutamine. Neuro2A cells were cultured in EMEM supplemented with 10% FCS, penicillin, streptomycin, glutamine, and non-essential amino acids. Transient transfection assays were carried out in 24-well plates (0.5×10^5 cells per well for COS-1 and Neuro2A cells, 0.25×10^5 cells per well for BHK cells) using the standard calcium phosphate coprecipitation technique as described in Greiner et al. (Greiner et al., 1996). Cells were transfected with 250 ng of Gal4(5×)-TATA-LUC, Gal4(3×)-TK-LUC, or ERE(2×)-TK-LUC reporter plasmid and 50 ng per well of pCMX-Gal4-ERR3 or pCMX-ERR3 expression plasmid. The empty plasmids pCMX-Gal4 and pCMX served as control. […] Luciferase activity was assayed as described in Greiner et al. (1996). All experiments were repeated at least three times. B. Results B.1.
# Gal4-ERR3 = target: T2, Gal4-ERR3 (Homo sapiens, UniProt P62508); test: Transient transfection luciferase reporter assay, Gal4-ERR3 in COS-1 cells; format: cell-based
# T2 construct: expressed in transfected cells; host or cells: COS-1
# T2 sequence (P62508 229-458): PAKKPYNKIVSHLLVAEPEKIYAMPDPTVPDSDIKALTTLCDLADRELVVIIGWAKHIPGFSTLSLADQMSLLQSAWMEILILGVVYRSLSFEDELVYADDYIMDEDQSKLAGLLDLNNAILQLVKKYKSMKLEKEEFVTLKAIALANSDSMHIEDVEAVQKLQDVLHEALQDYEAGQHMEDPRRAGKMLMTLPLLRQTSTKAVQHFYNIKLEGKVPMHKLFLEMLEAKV
# Experimental: FIG. 6: represents the transcriptional activities of wild-type and mutant ERR3 fusion proteins in transient transfection assays, wherein (A) COS-1 cells were transfected in 24-well plates with 250 ng per well of Gal4(5×)-TATA-LUC reporter and 50 ng of wt or mutant pCMX-Gal4-ERR3 expression plasmid. […] (B) Experiments were performed as described in (A) using 250 ng per well of Gal4(3×)-TK-LUC reporter plasmid and 50 ng of wt or mutant Gal4-ERR3 expression plasmid. […] FIGS. A to C represent an average of three independent experiments. The activity of the Gal4 DBD control was set to one.
# COS-1 and BHK cells were cultured in DMEM supplemented with 5% FCS, penicillin, streptomycin, and glutamine. Neuro2A cells were cultured in EMEM supplemented with 10% FCS, penicillin, streptomycin, glutamine, and non-essential amino acids. Transient transfection assays were carried out in 24-well plates (0.5×10^5 cells per well for COS-1 and Neuro2A cells, 0.25×10^5 cells per well for BHK cells) using the standard calcium phosphate coprecipitation technique as described in Greiner et al. (Greiner et al., 1996). Cells were transfected with 250 ng of Gal4(5×)-TATA-LUC, Gal4(3×)-TK-LUC, or ERE(2×)-TK-LUC reporter plasmid and 50 ng per well of pCMX-Gal4-ERR3 or pCMX-ERR3 expression plasmid. The empty plasmids pCMX-Gal4 and pCMX served as control. […]
# ERR1 = target: T3, ERR1 (Homo sapiens, UniProt P11474); details: Coward et al. (2001); cited from earlier work
# T3 sequence (P11474 1-423): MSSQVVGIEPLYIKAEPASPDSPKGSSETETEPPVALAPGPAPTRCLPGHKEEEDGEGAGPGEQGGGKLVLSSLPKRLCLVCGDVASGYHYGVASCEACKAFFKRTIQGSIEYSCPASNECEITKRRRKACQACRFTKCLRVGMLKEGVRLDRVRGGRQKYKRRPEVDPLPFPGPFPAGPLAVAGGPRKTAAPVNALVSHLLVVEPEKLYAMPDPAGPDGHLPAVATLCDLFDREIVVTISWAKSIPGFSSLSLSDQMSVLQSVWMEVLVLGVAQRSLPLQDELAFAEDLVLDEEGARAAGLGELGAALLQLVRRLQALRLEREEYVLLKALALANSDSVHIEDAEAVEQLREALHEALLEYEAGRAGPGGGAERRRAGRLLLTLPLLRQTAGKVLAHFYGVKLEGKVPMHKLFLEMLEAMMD
# [1] = target: T4, ERR3 LBD/GST-SRC-1 RID complex (Homo sapiens, UniProt P62508); test: In vitro protein-protein interaction assay, wt ERR3 LBD with SRC-1 RID (native gels); format: biochemical; details: 10^−4M ligand
# T4 construct: wt or mutant ERR3 LBDs (residues 229 to 458, human and murine receptor are identical); made in house; host or cells: E. coli BL21(DE3)
# T4 sequence (P62508 229-458): T2 sequence (P62508 229-458)
# Experimental: The His-tagged wt or mutant ERR3 LBDs, the GST-tagged SRC-1 RID, and GST were expressed in E. coli BL21(DE3) and partially purified by affinity chromatography using TALON (Clontech) or Glutathione Sepharose 4B (Pharmacia), respectively. […] After purification the proteins were dialyzed in assay buffer (20 mM Tris.HCl pH 8.0, 200 mM NaCl), and concentrated. For the protein-protein interaction assays […] (about 70 pmol) of His-tagged wt or mutant ERR3 LBD were mixed with […] (about 100 pmol) of GST-tagged SRC-1 RID or […] of GST and incubated on ice for 10 mins. […] Protein complexes were resolved on native polyacrylamide gradient gels (8%-25%) using the Phast System (Pharmacia).
# In vitro interaction assays with the RID (amino acids 617-764) of the coactivator SRC-1 has first been performed. Hexahistidine (His)-tagged ERR3, LBD and GST-tagged SRC-1 RID were partially purified by affinity chromatography, the proteins were mixed, and complex formation was monitored on native polyacrylamide gels. […] Complexes were separated on native polyacrylamide gradient gels.
# Sequence of full length ERR3 (P62508 whole entry, the tested form may be a part): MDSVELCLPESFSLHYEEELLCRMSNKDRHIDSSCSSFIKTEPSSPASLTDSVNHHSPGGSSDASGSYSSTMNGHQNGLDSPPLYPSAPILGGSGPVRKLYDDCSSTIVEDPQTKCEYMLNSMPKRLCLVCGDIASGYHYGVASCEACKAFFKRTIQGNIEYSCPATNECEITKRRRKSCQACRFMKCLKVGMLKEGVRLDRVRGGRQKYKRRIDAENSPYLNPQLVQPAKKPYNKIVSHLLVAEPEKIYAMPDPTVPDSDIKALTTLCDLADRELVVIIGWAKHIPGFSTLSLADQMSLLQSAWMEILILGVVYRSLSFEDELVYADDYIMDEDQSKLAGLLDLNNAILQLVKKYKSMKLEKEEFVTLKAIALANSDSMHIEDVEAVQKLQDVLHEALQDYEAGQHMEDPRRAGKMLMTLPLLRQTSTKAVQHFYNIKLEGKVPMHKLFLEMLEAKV
substance,measurement,setting,value
4-hydroxytamoxifen [4-OHT],binding to ERR2,ERR2,binds
same,active repression of transcription of the TK promoter by full length ERR3,full length ERR3,does not actively repress transcription
same,activity of Gal4-ERR3,"Gal4-ERR3; 10^−6M 4-OHT, Gal4(5×)-TATA-LUC reporter",blocked efficiently
same,repression of the constitutive activity of Gal4-ERR3 below basal levels of the TK promoter,Gal4-ERR3; Gal4(3×)-TK-LUC reporter,neither 4-OHT nor DES repress
same,binding to ERR1,ERR1,does not bind
same,conformational change of the ERR3 LBD (migration on native gels),[1]; native gels,retarded
same,effect on the complex between the wt ERR3 LBD and GST-SRC-1 RID,[1]; native polyacrylamide gradient gels,specifically disrupted

# From patent publication US7279325B2, “Method for identifying antagonist compounds of the estrogen-related receptor 3 (ERR3) by using the x-ray structural coordinates of the ligand binding domain” (priority 2002, dated 2007)
